Results reported in ChEMBL document CHEMBL1201862, “PubChem BioAssay data set” (2004).
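Briefly, cells in 96-well plates were exposed to five compound concentrations for 48 h, and endpoints were estimated by linear interpolation. Here, GI50 denotes the concentration required for 50% inhibition of growth.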 Activity calls are given as the source filed them. No stated cut-off is given here; in the data, active = GI50 up to about 1.1 µM and inactive = higher.

Legend:
Assay in all cases: NCI anticancer screen, dose series, 48 h
DU-145 = tested on: DU-145
SK-OV-3 = tested on: SK-OV-3
LOX IMVI = tested on: LOX IMVI
OVCAR-3 = tested on: OVCAR-3
MDA-N = tested on: MDA-N
OVCAR-4 = tested on: OVCAR-4
BT-549 = tested on: BT-549
MDA-MB-435 = tested on: MDA-MB-435
TK-10 = tested on: TK-10
T47D = tested on: T47D
SNB-19 = tested on: SNB-19
HCC 2998 = tested on: HCC 2998
OVCAR-5 = tested on: OVCAR-5
ACHN = tested on: ACHN
CCRF-CEM = tested on: CCRF-CEM
SK-MEL-2 = tested on: SK-MEL-2
KM12 = tested on: KM12
SR = tested on: SR
UACC-257 = tested on: UACC-257
HOP-62 = tested on: HOP-62

Row | SMILES | GI50 (DU-145) | GI50 (SK-OV-3) | GI50 (LOX IMVI) | GI50 (OVCAR-3) | GI50 (MDA-N) | GI50 (OVCAR-4) | GI50 (BT-549) | GI50 (MDA-MB-435) | GI50 (TK-10) | GI50 (T47D) | GI50 (SNB-19) | GI50 (HCC 2998) | GI50 (OVCAR-5) | GI50 (ACHN) | GI50 (CCRF-CEM) | GI50 (SK-MEL-2) | GI50 (KM12) | GI50 (SR) | GI50 (UACC-257) | GI50 (HOP-62)
1 | CSC(=S)N/N=C/c1ccccc1 | 42.3 µM (inactive) | > 100 µM (inactive) | 45.1 µM (inactive) | 42 µM (inactive) | 41.9 µM (inactive) | 24.3 µM (inactive) | 46.3 µM (inactive) | 47.4 µM (inactive) | > 100 µM (inactive) | 16.3 µM (inactive) | 53.7 µM (inactive) | > 100 µM (inactive) | > 100 µM (inactive) | 43.4 µM (inactive) | 26 µM (inactive) | > 100 µM (inactive) | 65.6 µM (inactive) | 40.8 µM (inactive) | > 100 µM (inactive) | 40.7 µM (inactive)
2 | CCOC(=O)C12CC(C)=C(C)CC1CCCc1ccccc12 (stereo unspecified) | 34 µM (inactive) | 32 µM (inactive) | 17.1 µM (inactive) | 17.5 µM (inactive) | 26 µM (inactive) | 32.5 µM (inactive) | 43.3 µM (inactive) | 27.2 µM (inactive) | 27 µM (inactive) | 15 µM (inactive) | 29.6 µM (inactive) | 14.2 µM (inactive) | 21.4 µM (inactive) | 18.8 µM (inactive) | 18.4 µM (inactive) | 15.5 µM (inactive) | 29.6 µM (inactive) | 23.8 µM (inactive) | 17.6 µM (inactive) | 38.3 µM (inactive)
3 | CCCCCC(=O)OC[n+]1ccc(-c2c(COC(=O)NC(C)C)c(COC(=O)NC(C)C)c3n2CCC3)cc1 | > 35.5 µM (inactive) | > 100 µM (inactive) | > 100 µM (inactive) | > 100 µM (inactive) | > 100 µM (inactive) | > 100 µM (inactive) | > 100 µM (inactive) | > 100 µM (inactive) | > 100 µM (inactive) | > 100 µM (inactive) | > 100 µM (inactive) | > 100 µM (inactive) | > 100 µM (inactive) | 50.9 µM (inactive) | 43.2 µM (inactive) | > 100 µM (inactive) | > 100 µM (inactive) | 16.9 µM (inactive) | > 100 µM (inactive) | > 100 µM (inactive)
4 | CCCCN1C(=O)CC2[C@@H]3CCc4cc(OC)ccc4C3CC[C@]2(C)C1=O (stereo partly specified) | > 10 µM (inactive) | > 10 µM (inactive) | > 10 µM (inactive) | > 10 µM (inactive) | > 10 µM (inactive) | > 10 µM (inactive) | > 10 µM (inactive) | > 10 µM (inactive) | > 10 µM (inactive) | > 10 µM (inactive) | > 10 µM (inactive) | > 10 µM (inactive) | > 10 µM (inactive) | > 10 µM (inactive) | > 10 µM (inactive) | > 10 µM (inactive) | > 10 µM (inactive) | 6.85 µM (inactive) | > 10 µM (inactive) | > 10 µM (inactive)
5 | COc1ccc(CN(CCc2c[nH]c3ccccc23)Cc2ccc(OC)cc2)cc1 | 4.65 µM (inactive) | 5.46 µM (inactive) | 3.15 µM (inactive) | 3.23 µM (inactive) | 1.92 µM (inactive) | 3.88 µM (inactive) | 5.71 µM (inactive) | 2.76 µM (inactive) | 1.29 µM (inactive) | 1.33 µM (inactive) | 5.13 µM (inactive) | 3.34 µM (inactive) | 3.64 µM (inactive) | 3.37 µM (inactive) | 6.67 µM (inactive) | 3.9 µM (inactive) | 2.67 µM (inactive) | 7.57 µM (inactive) | 3.8 µM (inactive) | 3.01 µM (inactive)
6 | O=C1c2cc([N+](=O)[O-])sc2C(=O)c2ccsc21 | 0.273 µM (active) | 1.58 µM (inactive) | 0.0687 µM (active) | 0.0392 µM (active) | 0.191 µM (active) | 0.48 µM (active) | 0.438 µM (active) | 0.177 µM (active) | 0.774 µM (active) | 0.478 µM (active) | 1.89 µM (inactive) | 0.52 µM (active) | 1.69 µM (inactive) | 0.281 µM (active) | 0.075 µM (active) | 1.06 µM (active) | 0.407 µM (active) | < 0.0129 µM (active) | 0.242 µM (active) | 0.227 µM (active)
7 | CC(C)(C)[C@H]1CCC2(OCCO2)[C@](O)(CCCO)C1 | > 100 µM (inactive) | > 100 µM (inactive) | > 100 µM (inactive) | > 100 µM (inactive) | > 100 µM (inactive) | > 100 µM (inactive) | > 100 µM (inactive) | > 100 µM (inactive) | > 100 µM (inactive) | > 100 µM (inactive) | > 100 µM (inactive) | > 100 µM (inactive) | > 100 µM (inactive) | > 100 µM (inactive) | > 100 µM (inactive) | > 100 µM (inactive) | > 100 µM (inactive) | > 100 µM (inactive) | > 100 µM (inactive) | > 100 µM (inactive)
8 | COC(=O)c1c2c(cc3c1CC1(Cc4cc5c(cc4C1=O)CCC5)C3)CCC2 (stereo unspecified) | > 100 µM (inactive) | 21.9 µM (inactive) | 7.18 µM (inactive) | 72.9 µM (inactive) | 20.4 µM (inactive) | 34.3 µM (inactive) | 64.6 µM (inactive) | 28.1 µM (inactive) | 22.8 µM (inactive) | 59 µM (inactive) | > 100 µM (inactive) | 63 µM (inactive) | > 100 µM (inactive) | 86.1 µM (inactive) | 11 µM (inactive) | > 100 µM (inactive) | 38.7 µM (inactive) | > 10 µM (inactive) | 17.5 µM (inactive) | 34.3 µM (inactive)
9 | CN1N(c2ccccc2)C(=O)C2=NC=C(C(=O)c3ccccc3)C(=N)C21C (stereo unspecified) | > 100 µM (inactive) | > 100 µM (inactive) | > 100 µM (inactive) | > 100 µM (inactive) | > 100 µM (inactive) | > 100 µM (inactive) | > 100 µM (inactive) | > 100 µM (inactive) | > 100 µM (inactive) | > 100 µM (inactive) | > 100 µM (inactive) | > 100 µM (inactive) | > 100 µM (inactive) | > 100 µM (inactive) | > 100 µM (inactive) | > 100 µM (inactive) |  | > 100 µM (inactive) | > 100 µM (inactive) | > 100 µM (inactive)
10 | C/C(=N\NC(N)=S)C(CN1CCCCC1)C(C1=C(O)c2ccccc2OC1)c1ccccc1 (stereo unspecified) | > 100 µM (inactive) | > 100 µM (inactive) | > 100 µM (inactive) | 82.4 µM (inactive) | > 100 µM (inactive) | 83 µM (inactive) | > 100 µM (inactive) | > 100 µM (inactive) | > 100 µM (inactive) | 79.6 µM (inactive) | > 100 µM (inactive) | > 100 µM (inactive) | > 100 µM (inactive) | > 100 µM (inactive) | 61.1 µM (inactive) | > 100 µM (inactive) | > 100 µM (inactive) | > 100 µM (inactive) | > 100 µM (inactive) | 41 µM (inactive)
11 | Clc1nc(Cl)c(Cl)c(Cl)n1 | 16.7 µM (inactive) | 16.6 µM (inactive) | 11.3 µM (inactive) | 13.9 µM (inactive) | 19.1 µM (inactive) | 23 µM (inactive) | 20.6 µM (inactive) | 21.8 µM (inactive) | 20.9 µM (inactive) | 18.2 µM (inactive) | 22.3 µM (inactive) | 18.7 µM (inactive) | 20.5 µM (inactive) | 8.91 µM (inactive) | 5.15 µM (inactive) |  | 13.6 µM (inactive) | 5.96 µM (inactive) | 16.3 µM (inactive) | 19.6 µM (inactive)
12 | COc1ccc2nc3c([N+](=O)[O-])ccc4c3c(c2c1)N(CCCN(C)C)C(=S)N4CCCN(C)C | 5.16 µM (inactive) | 12.6 µM (inactive) | 3.28 µM (inactive) | 6.04 µM (inactive) | 8.13 µM (inactive) | 8.05 µM (inactive) | 11.8 µM (inactive) | 5.74 µM (inactive) | 7.4 µM (inactive) | 20.5 µM (inactive) | 9.71 µM (inactive) | 2.9 µM (inactive) | 14.6 µM (inactive) | 4.1 µM (inactive) | 4.98 µM (inactive) | 16.1 µM (inactive) | 2.5 µM (inactive) | 1.72 µM (inactive) | 6.12 µM (inactive) | 5.19 µM (inactive)
13 | Nn1c(Nc2ccc(S(N)(=O)=O)cc2)nnc(/C=C/c2c(O)ccc3ccccc23)c1=O | 26.3 µM (inactive) | 24.2 µM (inactive) | 12.9 µM (inactive) | 13 µM (inactive) | 16.3 µM (inactive) | 15.3 µM (inactive) | 14.9 µM (inactive) | 20.4 µM (inactive) |  | 15 µM (inactive) | 32.5 µM (inactive) | 18.8 µM (inactive) | 21.6 µM (inactive) | 30.3 µM (inactive) | 4.03 µM (inactive) | 39.8 µM (inactive) | 19.6 µM (inactive) | 8.77 µM (inactive) | 27.5 µM (inactive) | 20.3 µM (inactive)
14 | CC(C)Cc1ccc(C(C)CC2=CCC(CN(C)C)C2=O)cc1 (stereo unspecified) | 16.6 µM (inactive) | 17.6 µM (inactive) | 4.97 µM (inactive) | 11.2 µM (inactive) | 5.75 µM (inactive) | 20.4 µM (inactive) | 19.5 µM (inactive) | 8.13 µM (inactive) |  | 1.86 µM (inactive) | 15.3 µM (inactive) | 5.19 µM (inactive) | 16.1 µM (inactive) | 16.7 µM (inactive) | 2.4 µM (inactive) | 13.2 µM (inactive) | 3.13 µM (inactive) | 1.86 µM (inactive) | 13.5 µM (inactive) | 21.1 µM (inactive)
